Laboratory results from US8426569B2, “DNA capable of being amplified by PCR with high selectivity and high efficiency” (Riken, priority 2008, dated 2013).

Legend:
[1] = biological target: Klenow fragment of DNA polymerase I (KF exo-) (Escherichia coli, UniProt P00582, D355A/E357A)
DeepVent DNA polymerase [2] = biological target: T1, DeepVent DNA polymerase (Pyrococcus sp., UniProt Q51334, DEL493-1029); format: biochemical
DeepVent DNA polymerase [3] = biological target: T1, DeepVent DNA polymerase; format: biochemical; remark: listed apart in the source

T1 sequence (Q51334 with tags, fused parts or gaps DEL493-1029): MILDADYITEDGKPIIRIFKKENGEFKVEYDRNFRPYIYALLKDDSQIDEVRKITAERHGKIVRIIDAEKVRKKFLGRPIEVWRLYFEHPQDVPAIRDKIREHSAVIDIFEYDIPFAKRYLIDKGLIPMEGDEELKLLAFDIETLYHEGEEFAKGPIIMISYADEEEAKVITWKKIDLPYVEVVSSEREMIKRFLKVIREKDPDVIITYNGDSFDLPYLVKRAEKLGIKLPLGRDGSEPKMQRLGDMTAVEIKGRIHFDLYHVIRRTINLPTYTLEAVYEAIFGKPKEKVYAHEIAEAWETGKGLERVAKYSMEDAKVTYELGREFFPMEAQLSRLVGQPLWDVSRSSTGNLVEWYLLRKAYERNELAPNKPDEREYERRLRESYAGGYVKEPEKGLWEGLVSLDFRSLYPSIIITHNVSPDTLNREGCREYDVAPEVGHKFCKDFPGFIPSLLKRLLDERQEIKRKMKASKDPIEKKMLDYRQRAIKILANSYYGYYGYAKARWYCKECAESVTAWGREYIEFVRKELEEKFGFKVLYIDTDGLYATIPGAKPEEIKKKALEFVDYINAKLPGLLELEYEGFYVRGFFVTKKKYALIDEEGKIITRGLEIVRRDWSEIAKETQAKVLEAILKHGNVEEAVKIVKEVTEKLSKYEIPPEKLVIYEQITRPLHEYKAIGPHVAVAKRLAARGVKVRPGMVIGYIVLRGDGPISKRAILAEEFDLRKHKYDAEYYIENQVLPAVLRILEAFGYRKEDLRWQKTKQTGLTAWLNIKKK
Sequence of Klenow fragment of DNA polymerase I (KF exo-) (P00582 324-928 D355A/E357A limits assumed): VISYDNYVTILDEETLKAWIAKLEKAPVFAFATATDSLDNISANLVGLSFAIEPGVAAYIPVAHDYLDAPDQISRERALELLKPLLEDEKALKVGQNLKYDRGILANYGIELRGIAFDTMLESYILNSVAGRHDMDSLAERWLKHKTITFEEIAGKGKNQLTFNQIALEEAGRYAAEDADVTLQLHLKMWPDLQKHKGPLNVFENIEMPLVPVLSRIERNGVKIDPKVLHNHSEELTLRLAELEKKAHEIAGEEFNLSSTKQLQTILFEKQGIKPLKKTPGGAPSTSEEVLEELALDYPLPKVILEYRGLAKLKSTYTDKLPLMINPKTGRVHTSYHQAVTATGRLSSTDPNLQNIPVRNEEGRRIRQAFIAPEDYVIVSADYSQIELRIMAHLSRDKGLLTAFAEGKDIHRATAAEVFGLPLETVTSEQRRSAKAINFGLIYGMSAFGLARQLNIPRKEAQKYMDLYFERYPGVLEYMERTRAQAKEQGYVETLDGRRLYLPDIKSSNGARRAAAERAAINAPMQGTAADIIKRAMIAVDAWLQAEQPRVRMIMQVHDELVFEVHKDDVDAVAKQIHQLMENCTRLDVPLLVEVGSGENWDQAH

How did the “incorporation efficiency into Ds relative to that of the Pn substrate” value [1] turn out when `NCCCCCC(=O)NCC#Cc1cc([N+](=O)[O-])n([C@H]2C[C@H](O)[C@@H](COP(=O)(O)OP(=O)(O)OP(=O)(O)O)O2)c1` [NH2-hx-dPnTP, 1-(2-deoxy-β-D-ribofuranosyl)-4-[3-(6-amino-hexanamide)-1-propynyl]-2-nitropyrrole 5′-triphosphate] was run?
The value was “about twice”.

And the “incorporation efficiency into natural bases in the template strand” value [1]?
Its value is “lower than the incorporation efficiency into Ds”.

And the “conservation of both two sites of the unnatural base Ds in DNA (sequencing pattern analysis)” value (DeepVent DNA polymerase [2])?
Its value is “almost completely conserved”.

What about the “amplification of the DNA fragment containing Ds” value (DeepVent DNA polymerase [3]) of the same compound?
Its value is “about 10^8 times”.

And the “conservation of the unnatural base Ds in DNA (sequencing analysis)” value (DeepVent DNA polymerase [3])?
Its value is “almost completely conserved”.
